Results taken from ChEMBL document CHEMBL1201862, “PubChem BioAssay data set” (2004).
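Where inhibition never reached the appropriate level, the endpoint shown equals the highest concentration tested. Otherwise, values were interpolated linearly from a five-concentration, 48-hour dose response in 96-well plates. GI50 = concentration required for 50% inhibition of growth.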 The source made the active and inactive calls. Cut-off read from the data, not from the text of the source: active = GI50 up to about 1.1 µM and inactive = higher.

What was measured:
Test in all cases: NCI tumour cell line growth inhibition, 48 h
TK-10 = test system: TK-10
786-0 = test system: 786-0
SF-268 = test system: SF-268
U-251 = test system: U-251
SNB-75 = test system: SNB-75
Malme-3M = test system: Malme-3M
HOP-92 = test system: HOP-92
NCI-H226 = test system: NCI-H226
HT-29 = test system: HT-29
SNB-19 = test system: SNB-19
KM12 = test system: KM12
CCRF-CEM = test system: CCRF-CEM
HCT-15 = test system: HCT-15
OVCAR-3 = test system: OVCAR-3
A498 = test system: A498
SK-OV-3 = test system: SK-OV-3
OVCAR-5 = test system: OVCAR-5

## CC(=O)NC(CCCCNC(=O)NCCCl)C(=O)NCc1ccccc1 (stereo not drawn)
TK-10
  GI50: > 100 µM (inactive)
786-0
  GI50: > 100 µM (inactive)
SF-268
  GI50: > 100 µM (inactive)
U-251
  GI50: > 100 µM (inactive)
SNB-75
  GI50: > 100 µM (inactive)
Malme-3M
  GI50: > 100 µM (inactive)
HOP-92
  GI50: > 100 µM (inactive)
NCI-H226
  GI50: > 100 µM (inactive)
HT-29
  GI50: > 100 µM (inactive)
SNB-19
  GI50: > 100 µM (inactive)
KM12
  GI50: > 100 µM (inactive)
CCRF-CEM
  GI50: > 100 µM (inactive)
HCT-15
  GI50: > 100 µM
OVCAR-3
  GI50: > 100 µM (inactive)

## Cc1ccc2nc(NC(=O)C(=O)C(C(=O)c3ccc4ccccc4c3)C3OC(=O)c4ccccc43)sc2c1 (stereo not drawn)
786-0
  GI50: 6.15 µM (inactive)
SF-268
  GI50: 8.3 µM (inactive)
U-251
  GI50: 2.81 µM (inactive)
Malme-3M
  GI50: 10.1 µM (inactive)
A498
  GI50: 5.48 µM (inactive)
SK-OV-3
  GI50: 29.9 µM (inactive)
HOP-92
  GI50: 3.53 µM (inactive)
NCI-H226
  GI50: 2.1 µM (inactive)
HT-29
  GI50: 15.2 µM (inactive)
SNB-19
  GI50: 6.55 µM (inactive)
KM12
  GI50: 16.8 µM (inactive)
OVCAR-5
  GI50: 11.6 µM (inactive)
HCT-15
  GI50: > 10 µM
OVCAR-3
  GI50: 22.9 µM (inactive)

## COc1ccc(-c2cc(=O)c3ccccc3[nH]2)c(OC)c1
TK-10
  GI50: > 100 µM (inactive)
786-0
  GI50: > 100 µM (inactive)
SF-268
  GI50: > 100 µM (inactive)
U-251
  GI50: > 100 µM (inactive)
SNB-75
  GI50: > 100 µM (inactive)
Malme-3M
  GI50: > 100 µM (inactive)
SK-OV-3
  GI50: > 100 µM (inactive)
HT-29
  GI50: > 100 µM (inactive)
SNB-19
  GI50: > 100 µM (inactive)
KM12
  GI50: > 100 µM (inactive)
CCRF-CEM
  GI50: > 100 µM (inactive)
HCT-15
  GI50: > 100 µM
OVCAR-3
  GI50: > 100 µM (inactive)

## CCC(C)Cn1c(C)nc2c1C(=O)c1ccccc1C2=O (stereo not drawn)
TK-10
  GI50: 41.4 µM (inactive)
786-0
  GI50: 23.1 µM (inactive)
SF-268
  GI50: 23.9 µM (inactive)
U-251
  GI50: 20.5 µM (inactive)
SNB-75
  GI50: 28.6 µM (inactive)
Malme-3M
  GI50: 27.7 µM (inactive)
SK-OV-3
  GI50: 54.3 µM (inactive)
HOP-92
  GI50: 20.4 µM (inactive)
NCI-H226
  GI50: > 100 µM (inactive)
HT-29
  GI50: 28.2 µM (inactive)
SNB-19
  GI50: 53.6 µM (inactive)
KM12
  GI50: 27.9 µM (inactive)
CCRF-CEM
  GI50: 21.4 µM (inactive)
HCT-15
  GI50: 17.5 µM
OVCAR-3
  GI50: 23.3 µM (inactive)

## Oc1nc2cc(Cl)ccc2nc1/C(=N\Nc1ccccc1)C(O)c1ccc(Cl)c(Cl)c1 (stereo not drawn)
TK-10
  GI50: > 100 µM (inactive)
786-0
  GI50: > 100 µM (inactive)
SF-268
  GI50: 47.1 µM (inactive)
U-251
  GI50: > 100 µM (inactive)
SNB-75
  GI50: > 100 µM (inactive)
Malme-3M
  GI50: > 100 µM (inactive)
SK-OV-3
  GI50: > 100 µM (inactive)
HOP-92
  GI50: > 100 µM (inactive)
NCI-H226
  GI50: > 100 µM (inactive)
HT-29
  GI50: > 100 µM (inactive)
SNB-19
  GI50: > 100 µM (inactive)
KM12
  GI50: > 100 µM (inactive)
CCRF-CEM
  GI50: > 100 µM (inactive)
OVCAR-5
  GI50: > 100 µM (inactive)
HCT-15
  GI50: > 100 µM
OVCAR-3
  GI50: > 100 µM (inactive)

## CCCCCCCCCCCCOP(N)(=O)OCCCCCCCCCCCC
TK-10
  GI50: > 100 µM (inactive)
786-0
  GI50: > 100 µM (inactive)
SF-268
  GI50: > 100 µM (inactive)
U-251
  GI50: > 100 µM (inactive)
SNB-75
  GI50: > 100 µM (inactive)
Malme-3M
  GI50: > 100 µM (inactive)
SK-OV-3
  GI50: > 100 µM (inactive)
SNB-19
  GI50: > 100 µM (inactive)
CCRF-CEM
  GI50: > 100 µM (inactive)
HCT-15
  GI50: > 100 µM
OVCAR-3
  GI50: > 100 µM (inactive)

## CC1(C)C(=O)C(C)(C)C1=S
TK-10
  GI50: > 100 µM (inactive)
786-0
  GI50: > 100 µM (inactive)
SF-268
  GI50: > 100 µM (inactive)
U-251
  GI50: > 100 µM (inactive)
SNB-75
  GI50: 18.6 µM (inactive)
Malme-3M
  GI50: > 100 µM (inactive)
A498
  GI50: > 100 µM (inactive)
SK-OV-3
  GI50: > 100 µM (inactive)
NCI-H226
  GI50: > 100 µM (inactive)
HT-29
  GI50: > 100 µM (inactive)
SNB-19
  GI50: > 100 µM (inactive)
KM12
  GI50: > 100 µM (inactive)
CCRF-CEM
  GI50: > 100 µM (inactive)
OVCAR-5
  GI50: > 100 µM (inactive)
HCT-15
  GI50: > 100 µM
OVCAR-3
  GI50: > 100 µM (inactive)

## CCOP(=O)(C/C(O)=C1\C(=O)C(CCCNC(=O)OC(C)(C)C)N(Cc2ccc(OC)c(OC)c2)C1=O)OCC (stereo not drawn)
TK-10
  GI50: > 100 µM (inactive)
786-0
  GI50: > 100 µM (inactive)
SF-268
  GI50: > 100 µM (inactive)
U-251
  GI50: > 100 µM (inactive)
SNB-75
  GI50: > 100 µM (inactive)
Malme-3M
  GI50: > 100 µM (inactive)
A498
  GI50: > 100 µM (inactive)
NCI-H226
  GI50: 77.4 µM (inactive)
HT-29
  GI50: > 100 µM (inactive)
SNB-19
  GI50: > 100 µM (inactive)
KM12
  GI50: > 100 µM (inactive)
CCRF-CEM
  GI50: > 100 µM (inactive)
OVCAR-5
  GI50: > 100 µM (inactive)
OVCAR-3
  GI50: > 100 µM (inactive)
